Data set [1] can be described thus: In vitro stability of ^89Zr complexes in formulation buffer (radio-TLC / iTLC). It counts as physicochemical. As to conditions: formulation buffer (3 mM gentisic acid + 0.25 M NaOAc, pH 5.5), 37 °C. The protocol: (§1) Stability studies were performed on ^89Zr labeled AAZTHAS and AAZTHAG to test the effect of the pendant arm length on complex stability. The stability of the two ^89Zr-complexes was investigated by radio-TLC after incubation for 72 h at 37 °C in formulation buffer, EDTA 5 mM (1000-fold excess), and human serum (HS).
(§2) After the purification step and analysis of the radioactive complex via radio-HPLC, the stability assessment of the complex at different time points and in different solutions was carried out. ^89Zr-AAZTHAS and ^89Zr-AAZTHAG were dissolved in formulation buffer, EDTA 5 mM, and human serum in 1:5 v/v ratio and were incubated at 37 °C up to 96 h. […] At each time point the stability was evaluated by radio-iTLC (Elution solution 1) using an instant thin-layer chromatographic strip (iTLC, Agilent).

A short description of data set [2]: In vitro stability of ^89Zr complexes in human serum (radio-TLC / iTLC). It counts as in vitro ADME. As to conditions: for % of ^89Zr complexed over total activity: human serum (HS). The method, then: as §1, §2
Data set [3] can be described thus: In vitro stability of ^89Zr complexes in EDTA solution (transchelation challenge, radio-TLC / iTLC). It is filed as physicochemical. The arrangement: dose or concentration left out as unconfirmed. As to conditions: 37 °C. The protocol: Stability studies were performed on ^89Zr labeled AAZTHAS and AAZTHAG to test the effect of the pendant arm length on complex stability. […]
as §2

The nature of data set [4]: Ex vivo biodistribution (tracer accumulation in organs, γ-counter) 24 h p.i. On the set-up: species or system female athymic Nude-Foxn1nu/nu mice. Particulars: i.v. tail vein, n = 3, ± SD. The method, then:
(§3) In order to study the biodistribution and the in vivo stability of the ^89Zr-AAZTHAG, 8 weeks old pathogen-free female athymic Nude-Foxn1nu/nu mice (Charles River Laboratories, Sulzfeld, Germany) (n = 3) were injected via a catheter in the tail vein with 2.9 ± 0.1 MBq of ^89Zr-AAZTHAG in 300 μL NaCl 0.9% solution, and imaged at different time points (30 min, 3 h, 6 h, 9 h, 12 h, 24 h) via PET/CT static acquisition using an Inveon Small Animal PET/CT scanner (Siemens, Knoxville, TN, USA).
Biodistribution studies were also performed to assess the in vivo distribution of the ^89Zr-AAZTHAG complex and evaluate its in vivo stability. After sacrifice, the mice by anesthesia, blood, and other selected organs were collected, weighed, and the activity was measured by a γ-counter. The tracer accumulation in selected organs was expressed as a percentage of injected dose per gram of tissue (%ID/g).

Data set [5] can be described thus: Small animal PET/CT static scans at different time points. As to conditions: six time points 30 min to 24 h, n = 3. It counts as in vivo, healthy female nude mice. The protocol:
Based on the good preliminary in vitro stability results, we investigated the behavior of ^89Zr-AAZTHAG in vivo in healthy female nude mice (n = 3) by acquiring PET/CT images at six different time points (30 min, 3 h, 6 h, 9 h, 12 h, and 24 h), and mice were then sacrificed 24 h p.i. to perform a biodistribution study.
as §3

“Also recorded” adds a separate entry of the source.

Turning to `CN(O)C(=O)CCCC(=O)NC1(C)CN(C(=O)CCCC(=O)N(C)O)CCN(C(=O)CCCC(=O)N(C)O)C1` [^89Zr-AAZTHAG, metal not drawn], the “% of ^89Zr complexed over total activity” value in data set [1] (Day 0) was 91.5 ± 10.6%; in data set [1] (Day 1), 83.0 ± 6.5%; in data set [1] (Day 2) it was 78.1 ± 13.8%; in data set [1] (Day 3 (72 h)), 73 ± 5%; in data set [1] (Day 3 (72 h), listed as AAZTHAG) it was 73.0 ± 5.2%; in data set [2] (37 °C, Day 0) it was 92.0 ± 11.3%. Also, the “% of ^89Zr complexed over total activity” value turned out to be 77.7 ± 18.6% in data set [2] (37 °C, Day 1); 76.9 ± 15.4% in data set [2] (37 °C, Day 2); 87 ± 5% in data set [2] (37 °C, Day 3 (72 h)); 86.4 ± 5.5% in data set [2] (37 °C, Day 3 (72 h), listed as AAZTHAG); 30.6 ± 30.3% in data set [3] (Day 0); 4.4 ± 3.9% in data set [3] (Day 1). Moreover, the “% of ^89Zr complexed over total activity” value came out at 2.4 ± 0.1% in data set [3] (Day 2) and 3.2 ± 2.6% in data set [3] (Day 3). In data set [2] (human serum), the “Time for which the ^89Zr-complex is stable in HS” value is on record as “at least 4 h”. Also, the “Radioactivity accumulated in bladder” value in data set [4] (Bladder) is 0.049 ± 0.010 %ID/g. Moreover, in data set [4] (Blood), the “Radioactivity accumulated in blood” value was found to be 0.007 ± 0.005 %ID/g. Moreover, in data set [4] (Brain), the “Radioactivity accumulated in brain” value turned out to be 0.002 ± 0.001 %ID/g. The “Radioactivity accumulated in femur” value in data set [4] (Femur) is on record as 0.193 ± 0.108 %ID/g. Further, the “Radioactivity accumulated in heart” value in data set [4] (Heart) amounted to 0.010 ± 0.004 %ID/g. Moreover, the “Radioactivity accumulated in kidney” value in data set [4] (Kidney) was 0.575 ± 0.199 %ID/g. Besides, in data set [4] (Large Intestine), the “Radioactivity accumulated in large intestine” value is reported as 0.020 ± 0.010 %ID/g. Also, the “Radioactivity accumulated in liver” value in data set [4] (Liver) came out at 0.041 ± 0.010 %ID/g. In addition, in data set [4] (Lung), the “Radioactivity accumulated in lung” value stood at 0.021 ± 0.007 %ID/g. Further, the “Radioactivity accumulated in muscle” value in data set [4] (Muscle) stood at 0.006 ± 0.002 %ID/g. In addition, the “Radioactivity accumulated in pancreas” value in data set [4] (Pancreas) amounted to 0.016 ± 0.008 %ID/g. The “Radioactivity accumulated in small intestine” value in data set [4] (Small Intestine) was determined as 0.012 ± 0.006 %ID/g. The “Radioactivity accumulated in spleen” value in data set [4] (Spleen) came out at 0.029 ± 0.005 %ID/g. The “Radioactivity accumulated in stomach” value in data set [4] (Stomach) was found to be 0.014 ± 0.005 %ID/g. Also, the “Radioactivity accumulated in tail” value in data set [4] (Tail) stood at 0.040 ± 0.013 %ID/g. The “Excretion route seen in PET/CT images” value in data set [5] is “hepatobiliary and renal excretion”. Also, the “Signal in bones during PET acquisition (release of Zr-89)” value in data set [5] is reported as “low signal in bones”.
Consider `CN(O)C(=O)CCC(=O)NC1(C)CN(C(=O)CCC(=O)N(C)O)CCN(C(=O)CCC(=O)N(C)O)C1` [^89Zr-AAZTHAS, metal not drawn], for which the “% of ^89Zr complexed over total activity” value in data set [1] (Day 0) came to 71.0%; in data set [1] (Day 1), 63.3%; in data set [1] (Day 2), 62.3%; in data set [1] (Day 3 (72 h)), 42%; in data set [2] (37 °C, Day 0) it was 71.0%; in data set [2] (37 °C, Day 1) it was 76.8%. In addition, the “% of ^89Zr complexed over total activity” value in data set [2] (37 °C, Day 2) turned out to be 59.2%; in data set [2] (37 °C, Day 3 (72 h)) it was 46%; in data set [3] (Day 0), 15.1%; in data set [3] (Day 1), 1.0%; in data set [3] (Day 2), 1.6%. In addition, the “Behaviour of the complex on incubation in HS (precipitation)” value in data set [2] (human serum, 37 °C) is “tends to precipitate over time; also recorded: precipitates”.

The record behind these values is PMC8512011, “A Semi Rigid Novel Hydroxamate AMPED-Based Ligand for ^89Zr PET Imaging” (Molecules, 2021).
